The source of these data is US9049858B2, “Pest controlling composition and method for controlling pest” (SUMITOMO CHEMICAL COMPANY, LIMITED, priority 2010, dated 2015).

This test concerns gray mold fungus (Botrytis cinerea). Description: Cucumber leaf disk preventive test against gray mold fungus. Format: in vivo. To be noted: 15° C., six days. Here is the method: True leaf of cucumber was punched out with cork borer to 13 mm in diameter to prepare a leaf disk. In 24 well microwell plate that was dispensed with 1 ml 0.8% water agar, the leaf disk was placed such that the upper side of the leaf was in an upward direction. […] Control where 20 micro liter ion-exchange water was spread was prepared (for non-treated group). After confirming that the spray solution was dried, conidium of gray mold fungus (Botrytis cinerea) was suspended into potato dextrose broth (DIFCO) in a density, of about 10^5 conidia/mL and was then subjected to a spray inoculation. After leaving to stand the leaf disk in a growth chamber set up at 15° C. for six days, an onset area on each leaf was measured and a preventive value was then calculated by the following equation 1.
The same above operations were carried out using spinetoram or spinosad instead of abamectin, so as to obtain the respective preventive values. Preventive value(%)=100×(A−B)/A (Equation 1)
A: an onset area rate of plant belonging to non-treated group
B: an onset area rate of plant belonging to treated group onset area rate=(onset area of the leaf disk)/(the total area of the leaf disk)
The same above operations as described in Test Examples 1 to 6 were carried out using emamectin-benzoate, lepimectin or milbemectin instead of abamectin, so as to obtain the respective preventive values. […]

As for `CNC(=O)C(OC)c1ccccc1COc1cc(C)ccc1C` (centres unmarked) [the present amide compound], the “preventive value (%)” value came to 46% (the present amide compound alone 1.0 ppm (dimethyl sulfoxide solution)) and 56% (the present amide compound alone 2.5 ppm (dimethyl sulfoxide solution)).
